In patent publication US12545659B2, “IRAK degraders and uses thereof” (Kymera Therapeutics, Inc., priority 2019, dated 2026) one finds DC50 data, which are given here for 16 compounds.

The term DC50 denotes the concentration giving 50% degradation.

The target of one test is T1, IRAK4 (Homo sapiens, UniProt Q9NWZ3).
T1 construct: endogenous in cells; host or cells: OCI-LY10
T1 sequence (Q9NWZ3 1-460): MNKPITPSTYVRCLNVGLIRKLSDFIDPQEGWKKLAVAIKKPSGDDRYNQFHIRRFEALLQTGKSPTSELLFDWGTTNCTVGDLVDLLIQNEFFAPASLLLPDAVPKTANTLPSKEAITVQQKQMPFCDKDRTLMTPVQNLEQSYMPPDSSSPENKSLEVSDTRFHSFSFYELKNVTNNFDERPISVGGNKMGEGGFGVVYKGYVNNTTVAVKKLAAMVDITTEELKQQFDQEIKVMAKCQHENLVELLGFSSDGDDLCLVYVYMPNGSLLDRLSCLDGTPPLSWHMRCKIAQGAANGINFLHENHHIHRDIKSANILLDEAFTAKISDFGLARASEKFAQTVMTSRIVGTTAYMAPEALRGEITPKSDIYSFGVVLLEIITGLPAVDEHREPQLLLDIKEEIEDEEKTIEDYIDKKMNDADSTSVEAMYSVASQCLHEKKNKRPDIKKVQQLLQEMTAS
Briefly: IRAK4 MSD Degradation in OCI-LY10. In kind it is cell-based. Particulars: OCI-LY10 cells, 4 hrs incubation, read-out: IRAK4 degradation in OCI-LY10 at 4 hrs: DC50. The procedure, abridged: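 IRAK4 remaining in lysates was read by Meso Scale electrochemiluminescence sandwich (2H9 capture, Y279 plus SULFO-TAG detection). Cells were exposed 4 to 24 h at 37 °C to eight 3-fold dilutions from 1 to 10 μM final top; three-parameter logistic fit gave DC50.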
As for `COc1cc2nn([C@H]3CC[C@H](CN4C[C@H]5CC[C@@H](C4)N5c4cccc5c4n(C)c(=O)n5C4CCC(=O)NC4=O)CC3)cc2cc1NC(=O)c1cccc(C(F)(F)F)n1` (stereo partly shown) [I-284], the DC50 is 50 to 100 nM.
Take `Cn1c(=O)n(C2CCC(=O)NC2=O)c2cccc(N3[C@@H]4CC[C@H]3CN(C[C@H]3CC[C@H](n5cc6cc(NC(=O)c7cccc(C(F)(F)F)n7)c(C(C)(C)O)cc6n5)CC3)C4)c21` (stereo partly shown) [I-285]: the DC50 lay within 50 to 100 nM.
For `COc1cc2nn([C@H]3CC[C@H](CN4CCC5(CC4)CN(Cc4cccc6c4n(C)c(=O)n6C4CCC(=O)NC4=O)CCO5)CC3)cc2cc1NC(=O)c1cccc(C(F)(F)F)n1` (stereo partly shown) [I-289], the DC50 is 50 to 100 nM.
On the same count and under the same terms, the figure for `COc1cc2nn([C@H]3CC[C@H](C(=O)N(C)C4CCN(Cc5cccc6c5n(C)c(=O)n6C5CCC(=O)NC5=O)CC4)CC3)cc2cc1NC(=O)c1cccc(C(F)(F)F)n1` (stereo partly shown) [I-293] is 50 to 100 nM.
Same read-out and setting: the figure for `COc1cc2nn([C@H]3CC[C@H](C(=O)N4CCC(c5cccc6c5n(C)c(=O)n6C5CCC(=O)NC5=O)CC4)CC3)cc2cc1NC(=O)c1cccc(C(F)(F)F)n1` (stereo partly shown) [I-295, N-[2-[4-[4-[1-(2,6-dioxo-3-piperidyl)-3-methyl-2-oxo-benzimidazol-4-yl]piperidine-1-carbonyl]cyclohexyl]-6-methoxy-indazol-5-yl]-6-(trifluoromethyl)pyridine-2-carboxamide] is 50 to 100 nM.
As to `Cn1c(=O)n(C2CCC(=O)NC2=O)c2cccc(CCC3CC4(CCN(C[C@H]5CC[C@H](n6cc7cc(NC(=O)c8cnn9cccnc89)c(C(F)F)cc7n6)CC5)CC4)C3)c21` (stereo partly shown) [I-299], the half-maximal degradation concentration (DC50) is < 50 nM.
Turning to `Cn1c(=O)n(C2CCC(=O)NC2=O)c2cccc(CCCC3CCN(C[C@H]4CC[C@H](n5cc6cc(NC(=O)c7cccc(C(F)(F)F)n7)c(C(F)F)cc6n5)CC4)CC3)c21` (stereo partly shown) [I-300], the 50% degradation concentration (DC50) was 50 to 100 nM.

The test is the same for the next values; noted with them: OCI-LY10 cells, 24 hrs incubation, read-out: IRAK4 degradation in OCI-LY10 at 24 hrs: DC50.
Regarding `COc1cc2nn([C@H]3CC[C@H](CN4CC5(CC(CCNc6cccc7c6C(=O)N(C6CCC(=O)NC6=O)C7=O)C5)C4)CC3)cc2cc1-n1ccc2ccccc2c1=O` (stereo partly shown) [I-286], the 50% degradation concentration (DC50) was in the range of 50 to 100 nM.
Still for that read-out and setting: the figure for `Cn1c2cc(NC(=O)c3cccc(C(F)(F)F)n3)c(C(C)(C)O)cc2nc1[C@H]1CC[C@H](CN2CC3(CC(CCNc4cccc5c4C(=O)N(C4CCC(=O)NC4=O)C5=O)C3)C2)CC1` (stereo partly shown) [I-287] is 50 to 100 nM; for `CN(CCCO[C@H]1C[C@H](Nc2cccc3c2C(=O)N(C2CCC(=O)NC2=O)C3=O)C1)C[C@H]1CC[C@H](n2cc3cc(NC(=O)c4cccc(S(F)(F)(F)(F)F)n4)c(C(C)(C)O)cc3n2)CC1` (stereo partly shown) [I-290] it is 50 to 100 nM.
On the same count and under the same terms, the figure for `CC(C)(O)c1cc2nn([C@H]3CC[C@H](CN4CCC5(CC4)CC(Nc4cccc6c4C(=O)N(C4CCC(=O)NC4=O)C6=O)C5)CC3)cc2cc1NC(=O)c1cccc(S(F)(F)(F)(F)F)n1` (stereo partly shown) [I-291] is < 50 nM; for `COc1cc2nc([C@H]3CC[C@H](CN4CC5(CCC(CNc6cccc7c6C(=O)N(C6CCC(=O)NC6=O)C7=O)CC5)C4)CC3)oc2cc1NC(=O)c1cccc(C(C)(F)F)n1` (stereo partly shown) [I-292] it is 50 to 100 nM; for `CC(C)(O)COc1cc2nn([C@H]3CC[C@H](CN4CC5(CC(CCNc6cccc7c6C(=O)N(C6CCC(=O)NC6=O)C7=O)C5)C4)CC3)cc2cc1NC(=O)c1cccc(C(C)(F)F)n1` (stereo partly shown) [I-296] it is 50 to 100 nM.
Still for that read-out and setting: the value for `O=C1CCC(N2C(=O)c3ccc(NCC4CC5(C4)CN(C[C@H]4CC[C@H](n6cc7cc(NC(=O)c8cccc(S(F)(F)(F)(F)F)n8)c(N8CCCCC8)cc7n6)CC4)C5)cc3C2=O)C(=O)N1` (stereo partly shown) [I-297] was 100 to 500 nM; that for `Cc1cccc(C(=O)Nc2cc3cn([C@H]4CC[C@H](CN5CCC(COCCCNc6cccc7c6C(=O)N(C6CCC(=O)NC6=O)C7=O)CC5)CC4)nc3cc2C(C)(C)O)n1` (stereo partly shown) [I-304] was < 50 nM.
For `COc1cc2nn([C@H]3CC[C@H](CN4CCC(O[C@H]5C[C@H](Nc6cccc7c6C(=O)N(C6CCC(=O)NC6=O)C7=O)C5)CC4)CC3)cc2cc1NC(=O)c1cccc(C(C)(C)F)n1` (stereo partly shown) [I-305], the 50% degradation concentration (DC50) was in the range of 50 to 100 nM.
